Measured values: patent US20050020544A1, “Bicyclic CB2 cannabinoid receptor ligands” (priority 2002, published 2005)

Key:
Lewis rats = format: in vivo, rat
Method: Various animal models of autoimmune encephalomyelitis are known in the art, depending on the method of induction, the strain of the animal and the antigen employed to induce the disease. The impact of bicyclic CB2 ligands was tested in EAE using Lewis rats in which the onset of disease is observed by the appearance of clinical symptoms about 10 days after induction. The disease progress and the clinical score increase and peak around day 15 and spontaneous recovery is observed around day 18 after induction of the disease. The animals (at least 9 per test group at initiation of study, except for the untreated control group that comprised only 5 rats) were maintained on a 12 hours light/12 hours dark regimen, at a constant temperature of 22° C., with food and water ad libitum. EAE was induced in these animals by immunization with s.c. injection to the hind paws of 25 μg of purified guinea pig myelin basic protein (MBP, Sigma) emulsified in 0.1 ml of Complete Freund's Adjuvant (Difco).
Methylprednisolone was used as positive control and it was administered daily for 5 consecutive days i.v. at 30 mg/kg starting from day of disease induction by MBP injection. The results are recorded as clinical score; score of 0 indicates a normal animal with no clinical signs, 0.5 indicates a loss of tonicity in the tail's distal part, 1 indicates whole tail paralysis, 2 indicates paraplegia, 3 indicates quadriplegia, 4 indicates complete body paralysis and moribund state and 5 indicates death. The clinical score of the animals is recorded for 11 days following onset of disease and the area under the curve (AUC) is calculated over this period of time.
Moreover, in a separate study animals were euthanized 15 days after induction of the disease by i.p. injection of 100 mg/kg pentobarbital. Brains and spinal cord were removed and were fixed by overnight incubation with 4% Paraformaldehyde. The cervical segment of the spinal cord was dehydrated using ethanol solutions of increasing concentration and then embedded in paraplast. The spinal cord was then sectioned (10 μm) and staining was performed using hematoxylin and eosin. The stained slides were examined under light microscopy for foci of infiltrating lymphocytes. Number of foci were counted and averaged in 6 sections for each animal. Three groups of at least 4 animals each were tested in this system: untreated, vehicle treated, and animals treated with 0.5 mg/kg of compound A. Results are expressed as average±SD of number of foci.

human CB1 receptor = target: T1, human CB1 receptor (Homo sapiens, UniProt P21554); experiment: Adenylylcyclase assay: forskolin-activated cAMP in CB1 transfected HEK-293 cells; format: cell-based
T1 construct: purchased Perkin Elmer/NEN; host or cells: HEK-293 cells, stably transfected (membranes)
Method: Cannabinoids and derivatives bind to G-protein-coupled CB1 and CB2 receptors and exert their activity via the inhibition of adenylylcyclase activity. An adenylylcyclase assay forms a basis for the functional analysis of the compounds by determining their capacity to inhibit or promote forskolin-activated cAMP production. The assay is carried out according to Chin et al. (Chin, C. N. et al., J. Neurochem. 70: 366-73, 1998). Briefly, HEK-293 human kidney cells (ATCC#CRL-1573) stably transfected with either the human CB1 or CB2 receptor (cDNA) were grown in DMEM supplemented with 10% fetal calf serum, 1% Penicillin-Streptomycin and 2 mM L-glutamine. Cells were seeded in 24 wells plate at 5×10^4 cells/well and incubated for 48 hours. Medium was then removed and the adherent cells were washed with PBS. Two hundred μl of serum free medium supplemented with 0.2 mM Ro 20-1724, 0.25% BSA, and 20 mM HEPES was then added to each well. The cells were then activated with 1 μM forskolin in presence of the bicyclic test compounds in concentrations ranging from 10 pM up to 1 μM. The activated cells were then incubated at 37° C. for 20 minutes and the reaction terminated with 1.2 M HCl to a final concentration of 0.1 M. Cells were lyzed by freeze and thaw and the lysate was neutralized with 2 M HEPES, pH 7.5. cAMP was measured in 50 μl aliquots using the [^3H]-cAMP assay system (Amersham).
This experiment was first performed on CB2 receptor transfected cells.

[1] = system: IL-1β secretion from activated RAW 264.7 macrophages; experiment: Inhibition of IL-1β in LPS activated macrophages (ELISA); format: cell-based; conditions: Mus musculus, RAW264.7, 24 h, read-out: inhibition of IL-1β secretion
Method: The technique used to quantify the amount of a given protein in a liquid sample, either tissue culture supernatant or body fluid, is based on Enzyme Linked ImmunoSorbent Assay (ELISA) methodology. Either commercially available or established in house, the assay is based on the capture of the protein of interest by specific antibodies bound to the bottom of an ELISA plate well. […] Again the unbound material is washed away, the samples are then incubated with the appropriate substrate yielding a calorimetric reaction. The reaction is stopped and reading is performed in a spectrophotometer at the appropriate wavelength. Samples are tested at least in duplicate and the appropriate standard curve, consisting of serial dilutions of the recombinant target protein, is incorporated on each plate. Concentration of the protein in the sample is calculated from the standard curve.
RAW 264.7 macrophages, a mouse cell line (ATCC # TIB-71), were grown in Dulbecco's modified Eagle's medium (DMEM) with 4 mM L-glutamine adjusted to contain 1.5 g/L sodium bicarbonate, 4.5 g/L glucose, and 10% heat inactivated fetal bovine serum. Cells were grown in tissue culture flasks and seeded at appropriate density into 24 wells tissue culture plates. 0.5×10^6 Raw cells in one milliliter were stimulated with 2 μg/ml Lipopolysaccharide E. coli 055:B5 (DIFCO Laboratories). The mouse macrophages were pre-treated for one hour with controls or 10 μM of bicyclic CB2 ligands and later on activated with LPS. Dexamethasone was used as a positive control at 50 nM. Supernatant was collected 4 hours (for PGE2) and 24 hours (for IL-1β and TNF-α) after activation, and the levels of the inflammatory agent under study were determined by ELISA, as previously described. Inhibition was calculated versus vehicle treated cells.

adult male ICR mice = experiment: Ear edema model (Croton oil); format: in vivo, mouse; conditions: 3 hours after Croton oil
Method: The anti-inflammatory activity of the novel bicyclic CB2 ligands was screened in vivo using an ear edema model in mice. This test system utilizes various inflammation inducers, including Croton oil (CO) and Arachidonic acid (AA) and the outcome is assessed by measuring ear tissue swelling. […] The ability of the test compounds to prevent or diminish the inflammatory response to these stimulants is indicative of their systemic anti-inflammatory capability.
Compound A was dissolved in CREMOPHOR EL®:ethanol and injected i.p. in adult male ICR mice (30 g average body weight, Harlan, Israel) after dilution with sterile 0.9% sodium chloride to desired final concentrations according to required doses. Various doses of compounds were checked ranging from 0 to 30 mg/kg. Each treatment group was composed of 8-10 animals while the vehicle treated group was composed of 16 animals. […] Ear thickness was determined (in 0.01 mm units) 3 hours after CO application using a dial thickness gauge (Mitutoyo, Japan). Finally the ears were trimmed, an ear punch of 6 mm diameter was removed and its weight was measured. The ear edema is expressed as the ratio of ear punch weight of the CO treated ear versus the contralateral Acetone treated ear. Results are calculated as % inhibition as compared to CREMOPHOR EL®:ethanol vehicle treated animals.

T1 sequence (P21554 whole entry): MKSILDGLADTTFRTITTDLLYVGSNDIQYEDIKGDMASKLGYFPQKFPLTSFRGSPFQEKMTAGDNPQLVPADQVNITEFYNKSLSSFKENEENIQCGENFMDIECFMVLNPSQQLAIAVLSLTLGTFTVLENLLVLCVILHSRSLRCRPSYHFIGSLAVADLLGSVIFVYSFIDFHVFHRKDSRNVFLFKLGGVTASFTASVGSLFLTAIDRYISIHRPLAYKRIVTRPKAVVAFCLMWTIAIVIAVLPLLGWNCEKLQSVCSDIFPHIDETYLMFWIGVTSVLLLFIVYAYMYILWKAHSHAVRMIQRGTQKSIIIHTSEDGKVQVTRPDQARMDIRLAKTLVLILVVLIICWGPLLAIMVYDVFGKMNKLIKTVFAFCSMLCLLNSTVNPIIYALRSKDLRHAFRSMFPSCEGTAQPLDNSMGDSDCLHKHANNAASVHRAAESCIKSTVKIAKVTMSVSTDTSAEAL

CCCCCCC(C)(C)c1cc(O)c(C2CC(=O)C3CC2C3(C)C)c(O)c1 (single isomer, unassigned; (-)) [Compound A, (−)-4-[4-(1,1-Dimethyl-heptyl)2,6-dihydroxy-phenyl]-6,6-dimethyl-bicyclo[3.1.1)heptan-2-one]
decrease of infiltration (Lewis rats; 0.5 mg/kg, 15 days after induction): more than 50%
number of infiltration foci in spinal cord (Lewis rats; 0.5 mg/kg, 15 days after induction, average±SD): 10±5 foci/section
reduction in the clinical score (Lewis rats; 1 mg/kg, independent blinded repeat): 30%
reduction in the AUC of the clinical score (Lewis rats; 1 mg/kg, three consecutive days from onset of disease): 35%
therapeutic index (Lewis rats; EAE, 1 mg/kg versus tolerated 40 mg/kg): at least 40
IC50 (human CB1 receptor): 10.3 nM
inhibition at 1 µM (human CB1 receptor; HEK293, CB1 transfected HEK-293, 1 μM forskolin, read-out: maximal inhibition at 1 μM): 69%
inhibition at 10 µM [1]: 76%
ED50 (adult male ICR mice; Mus musculus, ip): 30 mg/kg
ED50 ear edema (adult male ICR mice; i.p.): 81 µmol/kg
